# Laboratory results taken from the supplement of paper PMC10307832.
# How the values were obtained:
# Experiment in all cases: relative viability (nuclei count vs DMSO), 5 days (fraction); higher = more cells survive
# [1] = compound: CC1(COc2ccc3c(c2)ncn3-c2ccc3cccc(N4CCC(N)CC4)c3n2)COC1 [Crenolanib] + O=C(c1cc(Cc2n[nH]c(=O)c3ccccc23)ccc1F)N1CCN(C(=O)C2CC2)CC1 [Olaparib] (partner 8 µM)
# In short: (§1)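 Values are medians from duplicate plates. Each reflects relative viability, defined as the nuclei count of treated wells over that of vehicle wells. Lung cancer cell lines in 1536-well plates were pin-tool dosed one day after seeding with one drug alone or with a fixed anchor-drug dose plus five library-drug doses (not always all listed) in √10 steps, then fixed, stained and imaged at 4× after 5 days.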
# [2] = compound: CC1(COc2ccc3c(c2)ncn3-c2ccc3cccc(N4CCC(N)CC4)c3n2)COC1 [Crenolanib] + CS(=O)(=O)CCNCc1ccc(-c2ccc3ncnc(Nc4ccc(OCc5cccc(F)c5)c(Cl)c4)c3c2)o1 [Lapatinib] (partner 2 µM)
# In short: as §1
# [3] = compound: CC1(COc2ccc3c(c2)ncn3-c2ccc3cccc(N4CCC(N)CC4)c3n2)COC1 [Crenolanib] + Cc1cc(Nc2cc(N3CCN(C)CC3)nc(Sc3ccc(NC(=O)C4CC4)cc3)n2)n[nH]1 [Tozasertib] (partner 0.1 µM)
# In short: as §1
# [4] = compound: CC1(COc2ccc3c(c2)ncn3-c2ccc3cccc(N4CCC(N)CC4)c3n2)COC1 [Crenolanib] + CC(C)C[C@H](NC(=O)[C@H](Cc1ccccc1)NC(=O)c1cnccn1)B(O)O [Bortezomib] (partner 0.002 µM)
# In short: as §1
Cell Line,relative viability ([1]; first compound 0.01 µM),relative viability ([1]; first compound 0.03162 µM),relative viability ([1]; first compound 0.1 µM),relative viability ([1]; first compound 0.3162 µM),relative viability ([1]; first compound 1 µM),relative viability ([2]; first compound 0.01 µM),relative viability ([2]; first compound 0.03162 µM),relative viability ([2]; first compound 0.1 µM),relative viability ([2]; first compound 0.3162 µM),relative viability ([2]; first compound 1 µM),relative viability ([3]; first compound 0.01 µM),relative viability ([3]; first compound 0.03162 µM),relative viability ([3]; first compound 0.1 µM),relative viability ([3]; first compound 0.3162 µM),relative viability ([3]; first compound 1 µM),relative viability ([4]; first compound 0.01 µM),relative viability ([4]; first compound 0.03162 µM),relative viability ([4]; first compound 0.1 µM),relative viability ([4]; first compound 0.3162 µM),relative viability ([4]; first compound 1 µM)
NCI-H1355,0.812,0.817,0.739,0.784,0.651,1.02,1.04,0.999,1.15,0.78,0.586,0.596,0.508,0.354,0.534,1.33,1.15,1.3,1.37,0.951
NCI-H2405,0.919,–,0.742,0.919,0.86,1.02,1.13,0.85,0.998,0.948,0.859,0.737,–,0.502,0.691,0.998,0.964,0.921,1.05,0.976
NCI-H2009,0.694,0.672,0.694,0.682,0.555,1.07,0.889,0.899,0.913,0.906,0.748,0.713,0.724,0.722,0.52,1.14,1.02,1.01,0.959,0.813
PC-14,0.255,0.257,0.299,0.249,0.257,0.311,0.294,0.335,0.335,0.324,0.697,0.573,0.554,0.533,0.413,0.908,0.809,0.785,0.995,0.948
HCC-15,0.828,0.734,0.726,0.631,0.63,0.829,0.895,0.807,0.83,0.793,0.397,0.313,0.444,0.378,0.427,1.15,1.01,0.909,1.05,0.956
NCI-H2126,0.928,0.91,0.893,0.994,0.952,0.796,0.742,0.745,0.775,0.71,0.87,0.909,0.807,0.699,0.745,1.09,1.17,1.13,1.15,1.1
NCI-H1915,0.267,0.278,0.266,0.283,0.244,0.943,0.927,1.01,0.956,0.764,0.453,0.415,0.436,0.424,0.391,1,0.974,0.929,1.03,0.772
NCI-H661,0.719,0.803,0.681,0.811,0.81,0.493,0.547,0.47,0.451,0.468,0.342,0.36,0.35,0.359,0.412,0.807,0.853,0.851,0.831,0.745
COR-L23,0.321,0.342,0.307,0.347,0.291,0.952,1.13,0.836,0.931,0.987,0.214,0.22,0.201,0.206,0.185,0.983,1.16,0.921,1.13,1.03
COR-L 105,0.729,0.641,0.643,0.751,0.584,0.353,0.403,0.345,0.37,0.335,0.379,0.426,0.365,0.38,0.358,0.95,0.863,0.646,0.825,0.676
201T,0.83,0.852,0.786,0.867,0.86,1,1.02,1.03,0.965,1.01,1.04,1.02,0.856,0.733,0.945,1.06,1.12,1.06,1.04,1.07
HCC-78,0.998,0.86,0.678,0.826,0.745,0.138,0.637,0.705,0.71,0.467,0.366,0.395,–,0.406,0.368,0.309,0.454,0.638,0.499,0.438
NCI-H647,0.477,0.512,0.511,0.802,0.586,1.04,0.996,1.05,1.16,1.08,0.294,0.384,0.285,0.354,0.297,1.03,0.94,0.974,1.16,0.888
HARA,0.846,0.949,0.707,0.87,0.683,0.711,0.81,0.645,0.602,0.684,0.138,0.131,0.145,0.116,0.121,1.17,1.1,1.09,1.13,1.16
NCI-H650,0.4,0.379,0.343,0.339,0.325,0.83,1.15,0.884,0.841,0.655,0.826,0.79,0.707,0.327,0.614,0.944,0.767,0.769,0.855,0.68
NCI-H2085,–,0.752,0.714,0.782,0.784,0.65,0.81,0.731,0.745,0.799,0.895,0.841,0.726,0.754,0.816,1.05,1.1,1.07,1.11,0.968
NCI-H2347,0.555,0.457,0.536,0.59,0.636,0.981,0.903,0.663,1.05,0.873,0.646,–,–,0.454,0.48,1.16,0.724,–,0.727,1.19

Cell Line,relative viability ([1]; first compound 0.01 µM),relative viability ([1]; first compound 0.03162 µM),relative viability ([1]; first compound 0.1 µM),relative viability ([1]; first compound 0.3162 µM),relative viability ([1]; first compound 1 µM),relative viability ([2]; first compound 0.01 µM),relative viability ([2]; first compound 0.03162 µM),relative viability ([2]; first compound 0.1 µM),relative viability ([2]; first compound 0.3162 µM),relative viability ([2]; first compound 1 µM),relative viability ([3]; first compound 0.01 µM),relative viability ([3]; first compound 0.03162 µM),relative viability ([3]; first compound 0.1 µM),relative viability ([3]; first compound 0.3162 µM),relative viability ([3]; first compound 1 µM),relative viability ([4]; first compound 0.01 µM),relative viability ([4]; first compound 0.03162 µM),relative viability ([4]; first compound 0.1 µM),relative viability ([4]; first compound 0.3162 µM),relative viability ([4]; first compound 1 µM)
NCI-H596,0.731,0.806,0.68,0.64,0.681,0.947,1.09,0.89,1.14,1.18,0.944,1.09,1.02,1.19,0.972,0.929,1.07,0.998,0.981,1.17
NCI-H520,0.367,0.258,0.33,0.288,0.338,0.664,0.848,0.88,0.85,0.778,0.48,0.475,0.514,0.477,0.437,0.481,0.528,0.824,0.779,0.628
EKVX,0.93,0.849,0.841,0.965,0.809,0.2,0.241,0.186,0.222,0.239,0.465,0.346,0.428,0.364,0.359,1.03,0.994,0.974,1.2,1.08
H3255,0.57,0.541,0.552,0.586,0.531,0.271,0.218,0.241,0.233,0.24,0.672,0.609,0.579,0.671,0.611,0.89,0.543,0.765,0.7,0.759
NCI-H1650,0.677,0.84,0.659,0.82,0.607,0.799,0.918,0.783,0.719,0.512,0.334,0.508,0.361,0.4,0.357,0.217,0.194,0.197,0.205,0.203
NCI-H2228,0.76,0.833,0.684,1.13,0.686,0.964,0.876,0.969,1.27,1.28,0.291,0.279,0.236,0.223,0.256,1.11,0.922,0.776,1.01,0.887
NCI-H2023,0.53,0.467,0.476,0.451,0.322,1.04,0.898,0.844,0.889,0.47,0.471,0.368,0.333,0.371,0.25,1.03,0.95,0.934,1.14,0.578
NCI-H3122,0.678,0.622,0.641,0.727,0.61,1.02,0.976,1.01,1.09,1.21,0.406,0.399,0.373,0.334,0.452,1.08,1.01,1.04,1.05,1.16
HCC-827,0.702,0.659,0.655,0.634,0.677,0.163,0.188,0.16,0.217,0.191,0.422,0.417,0.421,0.389,0.431,1.08,0.962,0.963,1.04,0.933
LU99A,0.274,0.283,0.281,0.22,0.27,1.08,0.988,1,1.03,0.955,0.288,0.261,0.277,0.249,0.263,1.23,1.28,0.983,1.34,1.05
LC-2-ad,0.65,0.704,0.728,0.74,0.65,1,0.922,0.982,1.05,0.992,0.495,0.435,0.447,0.34,0.385,1.09,0.959,0.98,1.18,0.99
NCI-H322M,0.741,0.779,0.651,0.806,0.795,0.613,0.64,0.543,0.567,0.587,0.51,0.503,0.461,0.424,0.465,1.36,0.923,1.1,1.27,1.4
HOP-62,0.398,0.192,0.45,0.387,0.33,0.869,1,0.991,1.08,0.834,0.357,0.332,0.43,0.342,0.341,1.01,0.488,0.743,0.317,0.309
SW 1573,0.589,0.416,0.44,0.651,0.484,1.01,1.06,1.3,1.18,1.1,0.175,0.198,0.137,0.212,0.174,1.04,1.15,0.996,1.29,1.15
NCI-H1993,1.16,1.13,1.07,1.15,0.937,0.805,0.759,0.856,0.787,0.784,0.639,0.588,0.572,0.579,0.543,0.82,1.11,1.04,1.06,0.994
NCI-H1734,0.617,0.676,0.568,0.7,0.605,1,1.08,0.995,1.27,0.937,0.275,0.251,0.249,0.306,0.275,0.979,1.09,0.919,1.22,0.93
